Measurements: patent publication US10065962B2, “Amino pryan ring derivative and composition and use thereof” (Sichuan Haisco Pharmaceutical Co., Ltd., priority 2014, dated 2018)
Like-named read-outs stand apart in the source and are kept apart here.

Tests used:
[1] = system: C57 mice; assay: Oral glucose tolerance test (OGTT) in mice; format: in vivo; settings: 10 mg/kg intragastric, glucose 5 g/kg 60 min after administration
Procedure: The oral glucose tolerance test (OGTT) was performed to evaluate the hypoglycemic effect of the compounds of the present invention in mice. 8-week old male C57 mice were purchased from Beijing Vital River Laboratory Animal Technology Co., Ltd. (Laboratory Animal Certificate No. SCXK (Beijing) 2012-0001) and used in the test The mice were grouped based on the base level of blood sugar after fasted, with 10 animals per group. The test compounds were formulated into a 1 mg/ml suspension and administered intragastrically at a dose of 10 mg/kg, while a blank agent was administered to the blank control group. 60 min after the administration, a 50% aqueous solution of glucose was dosed (5 g/kg), and the blood sugar level of each mouse was measured with a OneTouch blood glucose meter manufactured by Johnson & Johnson at 0 min, 15 min, 30 min, 45 min, 60 min, and 120 min.

[2] = Concentration of the compound in monkey plasma by LC-MS/MS; format: in vivo; settings: male, rhesus monkey, Rhesus monkeys, oral 10.0 mg/kg
Procedure: The laboratory animals were healthy male Rhesus monkeys each weighing about 5 kg, provided by Sichuan Primed Bio-tech Group Co. Ltd. Fasted Rhesus monkeys were grouped based on the body weight. […] For the enzymatic activity assay, 40 μl plasma was taken from each test sample, and 10 μl H-Ala-Pro-AFC substrate (0.2 mM) was added thereto, followed by reaction for 15 min. […] The period during which the inhibition of plasma. DPP-IV enzymatic activity was ≥80% was calculated for the test compounds, and the concentration of the compounds in plasma was measured by LC-MS/MS.

[3] = Evaluation of pharmacokinetics in rats; format: in vivo; settings: rat, whole blood, po, male SD rats, 5 mg/kg intragastric; for Cmax: read-out: Blood drug level Cmax; for half-life: read-out: Half-life T1/2 (converted)
Procedure: Male SD rats (purchased from Vital River Laboratory Animal Technology Co. LTD. License No. 11400700005540) each weighing 200 to 240 g were fasted overnight. On the day of experiments, 3 SD rats were each intragastrically administered with 5 mg/kg compound, and a 0.20 ml blood sample was taken from their jugular veins before the administration and 15 min, 30 min, 45 min, 1 h, 2 h, 4 h, 8 h, 12 h, and 24 h after the administration, to an EDTA tube. Acetonitrile containing an internal reference (verapamil 5.00 ng/ml, and glibenclamide 50.0 ng/ml) was added to the blood sample, followed by vigorous vortexing and centrifuging at 13,000 rpm for 10 min. The supernatant was taken for the LC-MS/MS assay. Pharmacokinetics parameters were calculated by using the non-compartment mode in Pharsight Phoenix 6.3.

[4] = target: T1, plasma DPP-IV (Rattus norvegicus, UniProt P14740); assay: Enzymatic screening experiment on plasma DPP-IV in rats; format: in vivo; settings: SD rats, oral 3.0 mg/kg, plasma DPP-IV activity
T1 construct: from tissue; host or cells: plasma of SD rats
T1 sequence (P14740 37-767 limits assumed): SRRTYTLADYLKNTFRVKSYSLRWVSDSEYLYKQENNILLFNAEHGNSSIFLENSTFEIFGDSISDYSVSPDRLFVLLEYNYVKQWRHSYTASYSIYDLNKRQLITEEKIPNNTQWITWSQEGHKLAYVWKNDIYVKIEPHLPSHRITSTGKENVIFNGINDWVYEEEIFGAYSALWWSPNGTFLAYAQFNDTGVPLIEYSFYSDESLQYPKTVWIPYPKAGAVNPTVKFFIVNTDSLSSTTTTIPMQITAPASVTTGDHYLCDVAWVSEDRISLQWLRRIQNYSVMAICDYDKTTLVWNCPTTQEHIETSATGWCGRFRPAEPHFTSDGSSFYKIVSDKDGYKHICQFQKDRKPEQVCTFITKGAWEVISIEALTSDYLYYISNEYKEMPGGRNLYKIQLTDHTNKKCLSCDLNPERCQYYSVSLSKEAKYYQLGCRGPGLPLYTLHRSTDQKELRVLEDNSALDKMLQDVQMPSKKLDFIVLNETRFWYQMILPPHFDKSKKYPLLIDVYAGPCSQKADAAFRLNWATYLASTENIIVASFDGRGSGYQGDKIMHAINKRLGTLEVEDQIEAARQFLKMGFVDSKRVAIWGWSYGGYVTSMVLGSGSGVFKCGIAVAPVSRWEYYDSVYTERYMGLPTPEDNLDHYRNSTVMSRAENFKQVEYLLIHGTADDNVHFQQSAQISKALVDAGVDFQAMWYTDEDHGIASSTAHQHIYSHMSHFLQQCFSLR
Text: Fasted rats were grouped based on the body weight.

[5] = target: plasma DPP-IV (Canis lupus familiaris, UniProt A0A8I3Q2I8); settings: beagle dogs, oral 10.0 mg/kg, plasma DPP-IV activity
Sequence of plasma DPP-IV (Canis lupus familiaris, UniProt A0A8I3Q2I8) (A0A8I3Q2I8 1-765): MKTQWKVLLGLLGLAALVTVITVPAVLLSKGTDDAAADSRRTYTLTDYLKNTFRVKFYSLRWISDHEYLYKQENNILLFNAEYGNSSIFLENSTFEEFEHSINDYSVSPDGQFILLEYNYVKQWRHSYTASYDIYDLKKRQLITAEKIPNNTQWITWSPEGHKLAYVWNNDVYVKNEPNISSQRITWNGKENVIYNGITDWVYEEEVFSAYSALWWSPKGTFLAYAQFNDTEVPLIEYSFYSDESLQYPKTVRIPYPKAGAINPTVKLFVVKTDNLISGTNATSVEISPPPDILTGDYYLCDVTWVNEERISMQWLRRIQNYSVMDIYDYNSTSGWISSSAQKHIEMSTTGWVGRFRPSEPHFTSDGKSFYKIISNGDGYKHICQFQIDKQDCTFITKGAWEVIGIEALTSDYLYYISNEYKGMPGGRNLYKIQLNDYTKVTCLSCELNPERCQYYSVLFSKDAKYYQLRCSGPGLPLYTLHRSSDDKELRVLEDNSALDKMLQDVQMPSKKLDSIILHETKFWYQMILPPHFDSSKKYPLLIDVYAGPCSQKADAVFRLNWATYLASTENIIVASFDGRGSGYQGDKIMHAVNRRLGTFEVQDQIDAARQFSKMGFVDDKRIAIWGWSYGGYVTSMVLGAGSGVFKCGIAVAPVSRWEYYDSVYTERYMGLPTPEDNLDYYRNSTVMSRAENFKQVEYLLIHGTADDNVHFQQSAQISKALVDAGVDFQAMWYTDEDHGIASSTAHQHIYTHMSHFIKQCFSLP
Procedure: The laboratory animals were male beagle dogs provided by Chengdu Dashuo Biological Sciences and Technology Co., Ltd. Fasted beagle dogs were grouped based on the body weight. The test group was orally administrated with the test compounds at a dose of 10.0 mg/kg. Blood samples were taken at various time points after the administration and subjected to anticoagulation with EDTA-2Na. […] Plasma was taken and preserved at −20° C. For the enzymatic activity assay, 40 μl plasma was taken from each test sample, and 10 μl H-Ala-Pro-AFC substrate (0.2 mM) was added thereto, followed by reaction for 15 nm.

[6] = target: DPP-IV (Mus musculus, UniProt P28843); assay: Effect of single oral administration on the enzymatic activity of DPP-IV in ob/ob mice; settings: read-out: DPP-IV enzymatic activity
Sequence of DPP-IV (P28843 37-760 limits assumed): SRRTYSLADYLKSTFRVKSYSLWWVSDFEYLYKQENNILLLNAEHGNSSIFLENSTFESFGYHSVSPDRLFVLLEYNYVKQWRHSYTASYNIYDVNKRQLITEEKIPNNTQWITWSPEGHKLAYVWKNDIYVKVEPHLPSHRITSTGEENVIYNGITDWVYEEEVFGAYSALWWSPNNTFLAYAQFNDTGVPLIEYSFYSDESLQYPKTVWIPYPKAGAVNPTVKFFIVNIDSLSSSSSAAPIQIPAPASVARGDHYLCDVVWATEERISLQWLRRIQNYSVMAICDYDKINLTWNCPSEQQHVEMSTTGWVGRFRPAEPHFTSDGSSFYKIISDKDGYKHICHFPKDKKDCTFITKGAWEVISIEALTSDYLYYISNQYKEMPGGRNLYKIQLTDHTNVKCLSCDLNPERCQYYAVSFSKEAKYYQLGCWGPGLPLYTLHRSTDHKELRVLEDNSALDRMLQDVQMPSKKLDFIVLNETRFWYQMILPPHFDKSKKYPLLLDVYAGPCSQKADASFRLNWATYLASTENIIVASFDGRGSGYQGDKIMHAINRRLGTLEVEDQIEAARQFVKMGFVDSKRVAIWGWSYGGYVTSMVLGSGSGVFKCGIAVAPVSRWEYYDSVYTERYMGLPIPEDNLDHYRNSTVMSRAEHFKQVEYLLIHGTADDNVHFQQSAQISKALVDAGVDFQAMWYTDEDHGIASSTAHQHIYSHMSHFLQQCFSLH

Q: For `N[C@H]1C[C@@H](N2Cc3cn(S(=O)(=O)C4CC4)nc3C2)[C@@H](C(F)(F)F)O[C@@H]1c1cc(F)ccc1F` [Compound 1], which “Decrease in AUC (blood sugar, OGTT)” value [1] is on record?
A: The value was 27.20%.

Q: Which “Decrease in AUC (blood sugar, OGTT)” value [1] does the source give for `CS(=O)(=O)n1cc2c(n1)CN([C@@H]1C[C@H](N)[C@@H](c3cc(F)ccc3F)O[C@@H]1C(F)(F)F)C2` [Compound 3, (2R,3S,5R,6S)-2-(2,5-difluorophenyl)-5-(2-(methylsulfonyl)pyrrolo[3,4-c]pyrazol-5(2H,4H,6H)-yl)-6-(trifluoromethyl)tetrahydro-2H-pyran-3-amine] here?
A: Its value is 27.99%.

Q: And the concentration at 0 h ([2]; 0 h)?
A: The concentration at 0 h was 0 nM.

Q: And the concentration at 0.5 h ([2]; 0.5 h)?
A: The concentration at 0.5 h was 270 nM.

Q: What about the concentration at 1 h ([2]; 1 h) of the same compound?
A: The concentration at 1 h was 1060 nM.

Q: And the concentration at 2 h ([2]; 2 h)?
A: The concentration at 2 h was 5.64 µM.

Q: What about the concentration at 4 h ([2]; 4 h) of the same compound?
A: The concentration at 4 h was 2560 nM.

Q: And the concentration at 8 h ([2]; 8 h)?
A: The concentration at 8 h was 4.22 µM.

Q: And the concentration at 12 h ([2]; 12 h)?
A: Its concentration at 12 h is 4.01 µM.

Q: What about the concentration at 24 h ([2]; 24 h) of the same compound?
A: The concentration at 24 h was 2930 nM.

Q: And the concentration at 32 h ([2]; 32 h)?
A: Its concentration at 32 h is 2560 nM.

Q: What about the concentration at 48 h ([2]; 48 h) of the same compound?
A: Its concentration at 48 h is 1940 nM.

Q: And the concentration at 56 h ([2]; 56 h)?
A: Its concentration at 56 h is 1280 nM.

Q: What about the concentration at 72 h ([2]; 72 h) of the same compound?
A: The concentration at 72 h was 1120 nM.

Q: What about the concentration at 80 h ([2]; 80 h) of the same compound?
A: The concentration at 80 h was 680 nM.

Q: And the concentration at 96 h ([2]; 96 h)?
A: Its concentration at 96 h is 710 nM.

Q: And the concentration at 104 h ([2]; 104 h)?
A: Its concentration at 104 h is 440 nM.

Q: And the concentration at 120 h ([2]; 120 h)?
A: Its concentration at 120 h is 340 nM.

Q: What about the concentration at 128 h ([2]; 128 h) of the same compound?
A: The concentration at 128 h was 270 nM.

Q: What about the concentration at 144 h ([2]; 144 h) of the same compound?
A: Its concentration at 144 h is 210 nM.

Q: And the concentration at 152 h ([2]; 152 h)?
A: Its concentration at 152 h is 160 nM.

Q: And the concentration at 168 h ([2]; 168 h)?
A: Its concentration at 168 h is 140 nM.

Q: And the concentration at 216 h ([2]; 216 h)?
A: Its concentration at 216 h is 71 nM.

Q: What about the concentration at 240 h ([2]; 240 h) of the same compound?
A: Its concentration at 240 h is 41 nM.

Q: What about the concentration at 264 h ([2]; 264 h) of the same compound?
A: The concentration at 264 h was 32 nM.

Q: What about the AUC(0-t) [3] of the same compound?
A: The AUC(0-t) was 106000 ng·h/mL.

Q: What about the Cmax [3] of the same compound?
A: Its Cmax is 11600 ng/mL.

Q: And the half-life [3]?
A: Its half-life is 426 min.

Q: Which “Decrease in AUC (blood sugar, OGTT)” value [1] does the source give for `CS(=O)(=O)n1cc2c(n1)CN([C@H]1CO[C@H](c3cc(F)ccc3F)[C@@H](N)C1)C2` [Omarigliptin] here?
A: The value was 22.27%.

Q: And the “Duration of Inhibition ≥70%” value [4]?
A: Its value is 55 h.

Q: And the “Duration of Inhibition ≥80%” value [5]?
A: The value was 162 h.

Q: What about the AUC(0-t) [3] of the same compound?
A: Its AUC(0-t) is 66800 ng·h/mL.

Q: And the Cmax [3]?
A: Its Cmax is 9290 ng/mL.

Q: What about the half-life [3] of the same compound?
A: Its half-life is 366 min.

Q: And the response vs control in vivo at 30 mg/kg ([6]; 2 h)?
A: Its response vs control in vivo at 30 mg/kg is 5.8%.

Q: What about the response vs control in vivo at 30 mg/kg ([6]; 4 h) of the same compound?
A: The response vs control in vivo at 30 mg/kg was 5.4%.

Q: And the response vs control in vivo at 30 mg/kg ([6]; 10 h)?
A: The response vs control in vivo at 30 mg/kg was 5.5%.

Q: What about the response vs control in vivo at 30 mg/kg ([6]; 24 h) of the same compound?
A: Its response vs control in vivo at 30 mg/kg is 30%.

Q: What about the response vs control in vivo at 30 mg/kg ([6]; 34 h) of the same compound?
A: The response vs control in vivo at 30 mg/kg was 34.5%.

Q: What about the response vs control in vivo at 30 mg/kg ([6]; 48 h) of the same compound?
A: Its response vs control in vivo at 30 mg/kg is 58.1%.

Q: And the response vs control in vivo at 30 mg/kg ([6]; 58 h)?
A: Its response vs control in vivo at 30 mg/kg is 49.9%.

Q: What about the response vs control in vivo at 30 mg/kg ([6]; 72 h) of the same compound?
A: The response vs control in vivo at 30 mg/kg was 66.7%.
